The values below come from the supplement of paper PMC11208160.
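Note: IS621 recombinase and bridge RNA in Escherichia coli cells.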

The data set in a line: recombinant barcode read abundance after kanamycin selection (control-corrected) (log10(CPM+1)); higher = more efficient recombination; sequences stand for … in AGTGCAGAGAAAATCGGCCAGTTTTCTCTGCCTGCAGTCCGCATGCCGT…AGATTTATGCAGCGGACTGCCTTTCTCCCAAAGTGATAAACCGGACAGTATCATGGACCGGTTTTCCCGGTAATCCGTATTTGCAAGGTTGGTTTCACT; site = the 11-nt target. In outline:
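Pooled E. coli screen pairing targets with IS621 bridge RNA target-binding loops. Each oligo (promoter, target, barcode, J23119-driven first 104 bridge RNA bases) was Gibson-cloned into a vector with the remaining 73 bp and T7-inducible recombinase, then co-electroporated with a donor plasmid. Two replicates each were plated on chloramphenicol/ampicillin LB agar (control) or chloramphenicol/ampicillin/kanamycin with 0.1 mM IPTG. Recombination efficiency is recombinant-junction barcode counts as CPM, averaged, control-corrected, reported as log10(CPM+1).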
Take “TTCACGCCTTGGGTTCTAACCTGTTGCCT (site TTCCCGCCTAG)”: the “recombinant barcode read abundance (log10)” value was found to be 0.127.

Take “TTCACGCCTTGGGTTCTAACCTGTTGCCT (site TTCGCGCCTAG)”: the “recombinant barcode read abundance (log10)” value was 0.0353.

Take “TTCACGCCTTGGGTTCTAACCTGTTGCCT (site TTCTCGCCTAG)”: the “recombinant barcode read abundance (log10)” value was 0.214.

Turning to “TTCACGGCTTGGGTTCTAACCTGTTGCCT (site TTAACGGCTAG)”, the “recombinant barcode read abundance (log10)” value is 0.223.

As to “TTCACGGCTTGGGTTCTAACCTGTTGCCT (site TTCACGGCTAG)”, the “recombinant barcode read abundance (log10)” value came to 0.0164.

Regarding “TTCCAATCTTGGGTTCTAACCTGTTGCCA (site TGCCAATCTAG)”, the “recombinant barcode read abundance (log10)” value was 0.0654.

In the case of “TTCCAATCTTGGGTTCTAACCTGTTGCCA (site TTCCAATCTTG)”, the “recombinant barcode read abundance (log10)” value turned out to be 0.713.

Consider “TTCCCCACTTGGGTTCTAACCTGTTGCCT (site AATATAGCTTA)”, for which the “recombinant barcode read abundance (log10)” value came out at 0.115.

For the sequence “TTCCCCACTTGGGTTCTAACCTGTTGCCT (site TTCCCCACTAG)”, the “recombinant barcode read abundance (log10)” value was 1.11.

Take “TTCCCGCCTTGGGTTCTAACCTGTTGCCT (site TTCACGCCTAG)”: the “recombinant barcode read abundance (log10)” value was determined as 0.0618.

In the case of “TTCCCGCCTTGGGTTCTAACCTGTTGCCT (site TTCCCGCCTAG)”, the “recombinant barcode read abundance (log10)” value was found to be 0.543.

Consider “TTCCCGCCTTGGGTTCTAACCTGTTGCCT (site TTCGCGCCTAG)”, for which the “recombinant barcode read abundance (log10)” value turned out to be 0.489.

Regarding “TTCCCGCCTTGGGTTCTAACCTGTTGCCT (site TTCTCGCCTAG)”, the “recombinant barcode read abundance (log10)” value was 0.155.

Regarding “TTCCGAGCTTGGGTTCTAACCTGTTGCGG (site TGTCGAGCTCC)”, the “recombinant barcode read abundance (log10)” value stood at 0.0848.

As to “TTCCGAGCTTGGGTTCTAACCTGTTGCGG (site TTCCGAGCTCC)”, the “recombinant barcode read abundance (log10)” value came to 1.01.

Regarding “TTCGAAACTTGGGTTCTAACCTGTTGCGT (site TCCGAGACTAC)”, the “recombinant barcode read abundance (log10)” value came out at 0.221.

For the sequence “TTCGAAACTTGGGTTCTAACCTGTTGCGT (site TTCGAAACTAC)”, the “recombinant barcode read abundance (log10)” value turned out to be 1.46.

Regarding “TTCGCATCTTGGGTTCTAACCTGTTGCTT (site CCAAGGCCTCG)”, the “recombinant barcode read abundance (log10)” value was 0.209.

In the case of “TTCGCATCTTGGGTTCTAACCTGTTGCTT (site TTCGCATCTAA)”, the “recombinant barcode read abundance (log10)” value amounted to 0.178.

Regarding “TTCGTAGCTTGGGTTCTAACCTGTTGCCT (site TTCGTAGCTAC)”, the “recombinant barcode read abundance (log10)” value came out at 0.0736.

Turning to “TTCGTAGCTTGGGTTCTAACCTGTTGCCT (site TTCGTAGCTAG)”, the “recombinant barcode read abundance (log10)” value turned out to be 1.22.

“TTCGTTGCTTGGGTTCTAACCTGTTGCCT (site ATCGTTGCTAG)”: the “recombinant barcode read abundance (log10)” value is 0.0494.

Regarding “TTCGTTGCTTGGGTTCTAACCTGTTGCCT (site CTCGTTGCTAG)”, the “recombinant barcode read abundance (log10)” value was determined as 0.41.

Turning to “TTCGTTGCTTGGGTTCTAACCTGTTGCCT (site GTCGTTGCTAG)”, the “recombinant barcode read abundance (log10)” value was 0.0105.

Consider “TTCGTTGCTTGGGTTCTAACCTGTTGCCT (site TTCGTTGCTAG)”, for which the “recombinant barcode read abundance (log10)” value came out at 0.302.

Take “TTCTAGACTTGGGTTCTAACCTGTTGCGG (site TCCTAGACTCC)”: the “recombinant barcode read abundance (log10)” value amounted to 0.189.

For the sequence “TTCTAGACTTGGGTTCTAACCTGTTGCGG (site TTCTAGACTCC)”, the “recombinant barcode read abundance (log10)” value was found to be 1.94.

On to “TTCTATCCTTGGGTTCTAACCTGTTGCCT (site TTCTATCCTAG)”, for which the “recombinant barcode read abundance (log10)” value was found to be 0.486.

For the sequence “TTCTATCCTTGGGTTCTAACCTGTTGCCT (site TTCTCTCCTAG)”, the “recombinant barcode read abundance (log10)” value was determined as 0.286.

With “TTCTATCCTTGGGTTCTAACCTGTTGCCT (site TTCTGTCCTAG)”, the “recombinant barcode read abundance (log10)” value amounted to 0.0469.

For “TTCTATCCTTGGGTTCTAACCTGTTGCCT (site TTCTTTCCTAG)”, the “recombinant barcode read abundance (log10)” value amounted to 0.094.

Take “TTCTATGCTTGGGTTCTAACCTGTTGCGT (site AAGCGCTCTCA)”: the “recombinant barcode read abundance (log10)” value was determined as 0.0654.

As for “TTCTATGCTTGGGTTCTAACCTGTTGCGT (site TTCTATGCTAC)”, the “recombinant barcode read abundance (log10)” value came to 0.131.

For the sequence “TTCTGAGCTTGGGTTCTAACCTGTTGCCT (site TTCTGAGCTAG)”, the “recombinant barcode read abundance (log10)” value came out at 0.184.

As to “TTCTGAGCTTGGGTTCTAACCTGTTGCCT (site TTCTGCGCTAG)”, the “recombinant barcode read abundance (log10)” value amounted to 0.0635.

“TTCTGAGCTTGGGTTCTAACCTGTTGCCT (site TTCTGGGCTAG)”: the “recombinant barcode read abundance (log10)” value was found to be 0.115.

For “TTCTGAGCTTGGGTTCTAACCTGTTGCCT (site TTCTGTGCTAG)”, the “recombinant barcode read abundance (log10)” value turned out to be 0.0128.

For “TTCTGTGCTTGGGTTCTAACCTGTTGCCT (site TTCTGAGCTAG)”, the “recombinant barcode read abundance (log10)” value came to 0.0672.

For the sequence “TTCTGTGCTTGGGTTCTAACCTGTTGCCT (site TTCTGCGCTAG)”, the “recombinant barcode read abundance (log10)” value was found to be 0.0701.

“TTCTGTGCTTGGGTTCTAACCTGTTGCCT (site TTCTGGGCTAG)”: the “recombinant barcode read abundance (log10)” value turned out to be 0.0555.

On to “TTCTGTGCTTGGGTTCTAACCTGTTGCCT (site TTCTGTGCTAG)”, for which the “recombinant barcode read abundance (log10)” value came out at 0.0428.

“TTGAAATCTTGGGTTCTAACCTGTTGCCT (site TTGAAATCTAG)”: the “recombinant barcode read abundance (log10)” value amounted to 0.131.

In the case of “TTGAAATCTTGGGTTCTAACCTGTTGCCT (site TTGACATCTAG)”, the “recombinant barcode read abundance (log10)” value is 0.0533.

Take “TTGAAATCTTGGGTTCTAACCTGTTGCCT (site TTGAGATCTAG)”: the “recombinant barcode read abundance (log10)” value came to 0.0296.

Take “TTGAAATCTTGGGTTCTAACCTGTTGCCT (site TTGATATCTAG)”: the “recombinant barcode read abundance (log10)” value was 0.0563.

As to “TTGAACTCTTGGGTTCTAACCTGTTGCCT (site TTGAACTCTAG)”, the “recombinant barcode read abundance (log10)” value stood at 1.18.

As to “TTGAACTCTTGGGTTCTAACCTGTTGCCT (site TTGAGCTCTAG)”, the “recombinant barcode read abundance (log10)” value came to 0.0203.

Regarding “TTGAATCCTTGGGTTCTAACCTGTTGCCA (site TTGAATCCTTG)”, the “recombinant barcode read abundance (log10)” value turned out to be 0.71.

For “TTGAATCCTTGGGTTCTAACCTGTTGCCA (site TTGAGTCCTTA)”, the “recombinant barcode read abundance (log10)” value was 0.0534.

For “TTGACATCTTGGGTTCTAACCTGTTGCCT (site TTGAAATCTAG)”, the “recombinant barcode read abundance (log10)” value is 0.179.

With “TTGACATCTTGGGTTCTAACCTGTTGCCT (site TTGACATCTAG)”, the “recombinant barcode read abundance (log10)” value stood at 0.216.

Take “TTGACATCTTGGGTTCTAACCTGTTGCCT (site TTGAGATCTAG)”: the “recombinant barcode read abundance (log10)” value was 0.0391.

Consider “TTGACATCTTGGGTTCTAACCTGTTGCCT (site TTGATATCTAG)”, for which the “recombinant barcode read abundance (log10)” value worked out at 0.147.

Turning to “TTGACGACTTGGGTTCTAACCTGTTGCCG (site CACCGAGCTTA)”, the “recombinant barcode read abundance (log10)” value is 0.149.

For the sequence “TTGACGACTTGGGTTCTAACCTGTTGCCG (site TTGACGACTCG)”, the “recombinant barcode read abundance (log10)” value is 0.452.

As to “TTGAGATCTTGGGTTCTAACCTGTTGCCT (site TTGAAATCTAG)”, the “recombinant barcode read abundance (log10)” value was determined as 0.0577.

On to “TTGAGATCTTGGGTTCTAACCTGTTGCCT (site TTGACATCTAG)”, for which the “recombinant barcode read abundance (log10)” value was 0.

Turning to “TTGAGATCTTGGGTTCTAACCTGTTGCCT (site TTGAGATCTAG)”, the “recombinant barcode read abundance (log10)” value stood at 0.0355.

With “TTGAGATCTTGGGTTCTAACCTGTTGCCT (site TTGATATCTAG)”, the “recombinant barcode read abundance (log10)” value is 0.264.

For the sequence “TTGAGCTCTTGGGTTCTAACCTGTTGCCT (site TTGAACTCTAG)”, the “recombinant barcode read abundance (log10)” value was 0.0507.

“TTGAGCTCTTGGGTTCTAACCTGTTGCCT (site TTGAGCTCTAG)”: the “recombinant barcode read abundance (log10)” value came to 0.952.

“TTGAGGACTTGGGTTCTAACCTGTTGCCA (site TTGAGGACTAC)”: the “recombinant barcode read abundance (log10)” value came to 1.14.

Consider “TTGAGGACTTGGGTTCTAACCTGTTGCCA (site TTGAGGACTTG)”, for which the “recombinant barcode read abundance (log10)” value came to 0.943.

On to “TTGAGTACTTGGGTTCTAACCTGTTGCCG (site TTGAGTACTCG)”, for which the “recombinant barcode read abundance (log10)” value was 0.577.

As for “TTGAGTACTTGGGTTCTAACCTGTTGCCG (site TTGATTACTTG)”, the “recombinant barcode read abundance (log10)” value was 0.0556.

As to “TTGAGTCCTTGGGTTCTAACCTGTTGCTA (site TTGAATCCTTG)”, the “recombinant barcode read abundance (log10)” value stood at 0.037.

With “TTGAGTCCTTGGGTTCTAACCTGTTGCTA (site TTGAGTCCTTA)”, the “recombinant barcode read abundance (log10)” value was determined as 0.488.

With “TTGCATCCTTGGGTTCTAACCTGTTGCAG (site CGTTGGTCTTC)”, the “recombinant barcode read abundance (log10)” value was 0.0529.

Regarding “TTGCATCCTTGGGTTCTAACCTGTTGCAG (site TTGCATCCTCT)”, the “recombinant barcode read abundance (log10)” value came to 0.802.

Consider “TTGCCAACTTGGGTTCTAACCTGTTGCCT (site TTGCAAACTAG)”, for which the “recombinant barcode read abundance (log10)” value is 0.146.

“TTGCCAACTTGGGTTCTAACCTGTTGCCT (site TTGCCAACTAG)”: the “recombinant barcode read abundance (log10)” value amounted to 0.332.

Turning to “TTGCCAACTTGGGTTCTAACCTGTTGCCT (site TTGCGAACTAG)”, the “recombinant barcode read abundance (log10)” value was determined as 0.0564.

Take “TTGCCAACTTGGGTTCTAACCTGTTGCCT (site TTGCTAACTAG)”: the “recombinant barcode read abundance (log10)” value turned out to be 0.00831.

On to “TTGCCGACTTGGGTTCTAACCTGTTGCCT (site TTGCCGACTAG)”, for which the “recombinant barcode read abundance (log10)” value was found to be 0.716.

For “TTGCCGACTTGGGTTCTAACCTGTTGCCT (site TTGCCTACTAG)”, the “recombinant barcode read abundance (log10)” value worked out at 0.

As to “TTGCCTACTTGGGTTCTAACCTGTTGCCT (site TTGCCGACTAG)”, the “recombinant barcode read abundance (log10)” value came out at 0.0577.

With “TTGCCTACTTGGGTTCTAACCTGTTGCCT (site TTGCCTACTAG)”, the “recombinant barcode read abundance (log10)” value is 0.339.
